Data reported in the CombiSolv-Exp solvation set (Vermeire and Green 2021).

Assay: solvent given as SMILES

CC(C)C(C)C(C)C
Conditions	solvation free energy, 298 K [kcal/mol]
in Brc1ccccc1	-4.64
in C1CCCCC1	-5.1
in C1CCOC1	-4.92
in C1COCCO1	-4.17
in C=CCCCC	-5
in C=CCCCCCC	-4.92
in C=CCCCCCCCC	-4.84
in CC1COC(=O)O1	-2.86
in CC#N	-3.46
in CC(=O)N(C)C	-3.7
in CC(=O)O	-3.77
in CC(=O)c1ccccc1	-3.96
in CC(C)=O	-4.14
in CC(C)CC(C)(C)C	-4.9
in CC(C)CCCC(C)CCCC(C)CCCCC(C)CCCC(C)CCCC(C)C	-4.48
in CC(C)CCO	-4.31
in CC(C)O	-4.09
in CC(C)OC(C)C	-4.9
in CCBr	-5.01
in CCC#N	-3.86
in CCC(C)=O	-4.39
in CCCC#N	-4.14
in CCCC(=O)OCC	-4.61
in CCCC(C)=O	-4.49
in CCCCC	-5.05
in CCCCCC	-5.03
in CCCCCC(C)=O	-4.51
in CCCCCCC	-4.98
in CCCCCCCC	-4.91
in CCCCCCCCC	-4.87
in CCCCCCCCCC	-4.84
in CCCCCCCCCCCC	-4.74
in CCCCCCCCCCCCCCCC	-4.66
in CCCCCCCCO	-4.33
in CCCCCCOC(C)=O	-4.59
in CCCCO	-4.23
in CCCCOC(C)=O	-4.56
in CCCCOCCCC	-4.88
in CCCO	-4.1
in CCN(CC)CC	-4.98
in CCO	-4.02
in CCOC(C)=O	-4.41
in CCOCC	-4.96
in CCOCCOCCOCC	-4.33
in CCOc1ccccc1	-4.42
in CN1CCCC1=O	-3.6
in CN(C)C=O	-3.53
in CN(C)P(=O)(N(C)C)N(C)C	-3.97
in CNC=O	-3.19
in CO	-3.64
in COC(C)=O	-4.22
in COCCO	-3.52
in COc1ccccc1	-4.35
in CS(C)=O	-2.63
in Cc1ccc(C)cc1	-4.85
in Cc1ccccc1	-4.85
in Cc1ccccn1	-4.45
in ClC(Cl)(Cl)Cl	-5.09
in ClC(Cl)Cl	-4.98
in ClCCCl	-4.4
in ClCCl	-4.74
in Clc1ccccc1	-4.84
in FC(F)(F)C(F)(F)C(F)(F)C(F)(F)C(F)(F)C(F)(F)C(F)(F)C(F)(F)F	-3.34
in FC(F)(F)C(F)(F)C(F)(F)C(F)(F)C(F)(F)C(F)(F)F	-3.4
in Fc1ccccc1	-4.75
in ICI	-2.94
in N#Cc1ccccc1	-4.01
in Nc1ccccc1	-3.27
in O	2.57
in O=C1CCCCC1	-4.32
in O=C1CCCO1	-3.01
in OCc1ccccc1	-3.52
in S=C=S	-5.06
in c1ccccc1	-4.83
in c1ccncc1	-4.17

CN(CC(F)(F)F)c1ccccc1
Conditions	solvation free energy, 298 K [kcal/mol]
in O	-1.92

ClC1=C(Cl)C2(Cl)C3C(Cl)C=CC3C1(Cl)C2(Cl)Cl (stereo unspecified)
Conditions	solvation free energy, 298 K [kcal/mol]
in CCCCCCCCC=CCCCCCCCC(=O)OCC(COC(=O)CCCCCCCC=CCCCCCCCC)OC(=O)CCCCCCCC=CCCCCCCCC	-13.5
in CCCCCCCCO	-10.6
in O	-2.55

FC(F)(F)c1ccccc1
Conditions	solvation free energy, 298 K [kcal/mol]
in O	-0.25

FCF
Conditions	solvation free energy, 298 K [kcal/mol]
in CCCCCCCCC	-0.37
in CCCCCCCCO	-0.57
in CN1CCCC1=O	-1.69
in CN(C)C=O	-1.69
in O	-0.33

C=CC1(C)CCC(C(C)C)=CC1C(=C)C (stereo unspecified)
Conditions	solvation free energy, 298 K [kcal/mol]
in O	-0.42
